# PubChem BioAssay AID256 (DTP/NCI, 2004)
# Where “and” joins values, the source holds several entries; their conditions need not be identical. Equal entries are not always repeated. Toxic doses and inconclusive results are not listed.
# System: CD2F1 mice, L1210 leukemia ip, survival T/C
# Assay: NCI In Vivo Anticancer Drug Screen. Data for tumor model L1210 Leukemia (intraperitoneal) in CD2F1 (CDF1) mice
# Settings: endpoint: mean survival time, higher = longer survival
# How it was run: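 Compound-dosed mice with transplantable tumor versus matched vehicle controls; endpoint ratio T/C reported.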
smiles,measurement,setting,value
Nc1nncs1,T/C,"dose: 1.0 mg/kg/injection, schedule: Q01DX005 (ip), vehicle: water",94 % of control
same,T/C,"dose: 2.0 mg/kg/injection, schedule: Q01DX005 (ip), vehicle: water",96 % of control
same,T/C,"dose: 4.0 mg/kg/injection, schedule: Q01DX005 (ip), vehicle: water",96 % of control
same,T/C,"dose: 8.0 mg/kg/injection, schedule: Q01DX005 (ip), vehicle: water",98 % of control
same,T/C,"dose: 8.0 mg/kg/injection, schedule: Q03HX008 (ip), vehicle: alkali diluted with saline",123 % of control
same,T/C,"dose: 8.0 mg/kg/injection, schedule: Q03HX016 (ip), vehicle: alkali diluted with saline",116 % of control
same,T/C,"dose: 8.0 mg/kg/injection, schedule: Q03HX024 (ip), vehicle: alkali diluted with saline",152 % of control
same,T/C,"dose: 8.0 mg/kg/injection, schedule: Q03HX024 (ip), vehicle: saline",153 % of control
same,T/C,"dose: 16.0 mg/kg/injection, schedule: Q01DX005 (ip), vehicle: water",108 % of control
same,T/C,"dose: 16.0 mg/kg/injection, schedule: Q01DX005 (iv), vehicle: alkali diluted with saline",110 % of control
same,T/C,"dose: 16.0 mg/kg/injection, schedule: Q01DX009 (oral), vehicle: other",108 % of control
same,T/C,"dose: 16.0 mg/kg/injection, schedule: Q03HX024 (ip), vehicle: alkali diluted with saline",194 % of control
same,T/C,"dose: 23.4 mg/kg/injection, schedule: Q04DX003 (ip), vehicle: water",103 % of control
same,T/C,"dose: 32.0 mg/kg/injection, schedule: Q01DX001 (iv), vehicle: alkali diluted with saline",107 % of control
same,T/C,"dose: 32.0 mg/kg/injection, schedule: Q01DX009 (ip), vehicle: other",123 % of control
same,T/C,"dose: 32.0 mg/kg/injection, schedule: Q01DX009 (ip), vehicle: saline with Tween-80",120 % of control
same,T/C,"dose: 32.0 mg/kg/injection, schedule: Q01DX009 (oral), vehicle: other",107 % of control
same,T/C,"dose: 32.0 mg/kg/injection, schedule: Q03HX008 (ip), vehicle: saline",120 % of control
same,T/C,"dose: 32.0 mg/kg/injection, schedule: Q03HX024 (ip), vehicle: saline",104 % of control
same,T/C,"dose: 32.0 mg/kg/injection, schedule: Q04DX003 (ip), vehicle: alkali diluted with saline",111 % of control
same,T/C,"dose: 32.0 mg/kg/injection, schedule: Q04DX003 (ip), vehicle: other",106 % of control
same,T/C,"dose: 39.0 mg/kg/injection, schedule: Q04DX003 (ip), vehicle: water",117 % of control and 105 % of control
same,T/C,"dose: 50.0 mg/kg/injection, schedule: Q04DX003 (ip), vehicle: water",106 % of control
same,T/C,"dose: 62.5 mg/kg/injection, schedule: Q04DX003 (ip), vehicle: water",103 % of control and 107 % of control
same,T/C,"dose: 64.0 mg/kg/injection, schedule: Q01DX001 (ip), vehicle: alkali diluted with saline",112 % of control
same,T/C,"dose: 64.0 mg/kg/injection, schedule: Q01DX001 (ip), vehicle: other",109 % of control
same,T/C,"dose: 64.0 mg/kg/injection, schedule: Q01DX001 (iv), vehicle: alkali diluted with saline",112 % of control
same,T/C,"dose: 64.0 mg/kg/injection, schedule: Q01DX001 (oral), vehicle: alkali diluted with saline",111 % of control
same,T/C,"dose: 64.0 mg/kg/injection, schedule: Q01DX001 (oral), vehicle: other",94 % of control
same,T/C,"dose: 64.0 mg/kg/injection, schedule: Q01DX001 (sc), vehicle: alkali diluted with saline",115 % of control
same,T/C,"dose: 64.0 mg/kg/injection, schedule: Q01DX009 (ip), vehicle: other",103 % of control
same,T/C,"dose: 64.0 mg/kg/injection, schedule: Q01DX009 (ip), vehicle: saline with Tween-80",104 % of control and 107 % of control
same,T/C,"dose: 64.0 mg/kg/injection, schedule: Q01DX009 (ip), vehicle: saline",109 % of control
same,T/C,"dose: 64.0 mg/kg/injection, schedule: Q01DX009 (oral), vehicle: other",86 % of control
same,T/C,"dose: 64.0 mg/kg/injection, schedule: Q03HX024 (ip), vehicle: alkali diluted with saline",97 % of control
same,T/C,"dose: 64.0 mg/kg/injection, schedule: Q04DX003 (ip), vehicle: other",123 % of control
same,T/C,"dose: 64.0 mg/kg/injection, schedule: Q08DX002 (ip), vehicle: alkali diluted with saline",114 % of control
same,T/C,"dose: 64.0 mg/kg/injection, schedule: Q08DX002 (ip), vehicle: other",105 % of control
same,T/C,"dose: 65.0 mg/kg/injection, schedule: Q04DX003 (ip), vehicle: water",123 % of control
same,T/C,"dose: 100.0 mg/kg/injection, schedule: Q04DX003 (ip), vehicle: water",119 % of control
same,T/C,"dose: 125.0 mg/kg/injection, schedule: Q04DX003 (ip), vehicle: water",119 % of control
same,T/C,"dose: 128.0 mg/kg/injection, schedule: Q01DX001 (ip), vehicle: other",119 % of control
same,T/C,"dose: 128.0 mg/kg/injection, schedule: Q01DX001 (iv), vehicle: alkali diluted with saline",119 % of control
same,T/C,"dose: 128.0 mg/kg/injection, schedule: Q01DX001 (oral), vehicle: other",104 % of control
same,T/C,"dose: 128.0 mg/kg/injection, schedule: Q01DX001 (sc), vehicle: alkali diluted with saline",120 % of control
same,T/C,"dose: 128.0 mg/kg/injection, schedule: Q01DX009 (sc), vehicle: alkali diluted with saline",96 % of control
same,T/C,"dose: 128.0 mg/kg/injection, schedule: Q08DX002 (ip), vehicle: alkali diluted with saline",124 % of control
same,T/C,"dose: 128.0 mg/kg/injection, schedule: Q08DX002 (ip), vehicle: other",116 % of control
same,T/C,"dose: 180.0 mg/kg/injection, schedule: Q04DX003 (ip), vehicle: water",159 % of control
same,T/C,"dose: 200.0 mg/kg/injection, schedule: Q04DX003 (ip), vehicle: water",124 % of control
same,T/C,"dose: 250.0 mg/kg/injection, schedule: Q04DX003 (ip), vehicle: water",156 % of control
same,T/C,"dose: 256.0 mg/kg/injection, schedule: Q01DX001 (ip), vehicle: other",118 % of control
same,T/C,"dose: 256.0 mg/kg/injection, schedule: Q01DX001 (oral), vehicle: other",108 % of control
same,T/C,"dose: 256.0 mg/kg/injection, schedule: Q01DX005 (iv), vehicle: alkali diluted with saline",150 % of control
same,T/C,"dose: 256.0 mg/kg/injection, schedule: Q01DX009 (ip), vehicle: alkali diluted with saline",87 % of control
same,T/C,"dose: 256.0 mg/kg/injection, schedule: Q04DX003 (ip), vehicle: alkali diluted with saline",163 % of control
same,T/C,"dose: 256.0 mg/kg/injection, schedule: Q04DX003 (ip), vehicle: other",157 % of control
same,T/C,"dose: 300.0 mg/kg/injection, schedule: Q04DX003 (ip), vehicle: water",161 % of control and 176 % of control
same,T/C,"dose: 512.0 mg/kg/injection, schedule: Q01DX001 (oral), vehicle: other",111 % of control
same,T/C,"dose: 512.0 mg/kg/injection, schedule: Q04DX003 (ip), vehicle: alkali diluted with saline",182 % of control
same,T/C,"dose: 512.0 mg/kg/injection, schedule: Q04DX003 (ip), vehicle: other",168 % of control
same,T/C,"dose: 512.0 mg/kg/injection, schedule: Q08DX002 (ip), vehicle: alkali diluted with saline",151 % of control
same,T/C,"dose: 833.0 mg/kg/injection, schedule: Q04DX003 (ip), vehicle: water",182 % of control
same,T/C,"dose: 1024.0 mg/kg/injection, schedule: Q01DX001 (ip), vehicle: other",122 % of control
same,T/C,"dose: 1024.0 mg/kg/injection, schedule: Q01DX001 (oral), vehicle: alkali diluted with saline",117 % of control
same,T/C,"dose: 1024.0 mg/kg/injection, schedule: Q01DX001 (oral), vehicle: other",109 % of control
same,T/C,"dose: 1024.0 mg/kg/injection, schedule: Q08DX002 (ip), vehicle: alkali diluted with saline",160 % of control
COc1c2c(c(OC)c3c(OC)c4ccccc4c(OC)c13)CC(O)CC2 (stereo not drawn),T/C,"dose: 12.5 mg/kg/injection, schedule: Q01DX005 (ip), vehicle: Klucel (hydroxypropylcellulose) (HPC)",92 % of control
same,T/C,"dose: 25.0 mg/kg/injection, schedule: Q01DX005 (ip), vehicle: Klucel (hydroxypropylcellulose) (HPC)",90 % of control
same,T/C,"dose: 50.0 mg/kg/injection, schedule: Q01DX005 (ip), vehicle: Klucel (hydroxypropylcellulose) (HPC)",97 % of control
same,T/C,"dose: 100.0 mg/kg/injection, schedule: Q01DX005 (ip), vehicle: Klucel (hydroxypropylcellulose) (HPC)",92 % of control
same,T/C,"dose: 200.0 mg/kg/injection, schedule: Q01DX005 (ip), vehicle: Klucel (hydroxypropylcellulose) (HPC)",103 % of control
same,T/C,"dose: 400.0 mg/kg/injection, schedule: Q01DX005 (ip), vehicle: Klucel (hydroxypropylcellulose) (HPC)",87 % of control
